Legend:
lymphocytes = conditions: infusion into afferent lymphatics, sheep; cited from earlier work
COS (Vector Control) = test: cAMP accumulation in COS cells (vector control); type: cell-based, monkey

CSCC[C@H](NC(=O)[C@H](Cc1ccccc1)NC(=O)CNC(=O)CNC(=O)[C@@H](N)Cc1ccc(O)cc1)C(=O)O [MET-ENK, Tyr-Gly-Gly-Phe-Met]
lymphocyte exit from popliteal nodes (lymphocytes): stimulated small and blast lymphocytes to exit the node and enter the efferent lymph
cAMP (COS (Vector Control); COS (Vector Control), MET-ENK 0.01 nM, naloxone 10 μM, forskolin 0.1 μM, controls 40.2 and 38.8): 31.6 fmoles/cell × 10^3
effect on cAMP, mock transfected controls (COS (Vector Control); COS transfected with vector alone): no effect on the cAMP produced in mock transfected controls

— patent US5753516A, “Screening method for ligands of the EBI-1 receptor” (priority 1995, dated 1998)
